Assay results taken from ChEMBL document CHEMBL3885881, “DrugMatrix”.

Organism: Rattus norvegicus
Experiment: DrugMatrix - Regimen: Daily Repeat
Assay type: toxicity, organism-based, Sprague-Dawley
Set-up: regimen Daily Repeat, gender Male, age 6-8 weeks
Details: in vivo, po, route oral GAVAGE; for ALANINE AMINOTRANSFERASE / ALBUMIN / ALKALINE PHOSPHATASE / ASPARTATE AMINOTRANSFERASE / BLOOD UREA NITROGEN / CARBON DIOXIDE / CHLORIDE / CHOLESTEROL / CREATINE PHOSPHOKINASE / CREATININE / GLUCOSE / LACTATE DEHYDROGENASE / LIPASE / PHOSPHORUS / POTASSIUM / SODIUM / TOTAL BILIRUBIN / TOTAL PROTEIN / URIC ACID: tissue Plasma
[1] = 4.5 mg/kg, 72 h, tissue Blood, dose level Low, time 3 day, vehicle 100 % WATER
[2] = 4.5 mg/kg, 72 h, dose level Low, time 3 day, vehicle 100 % WATER
[3] = 4.5 mg/kg, 120 h, tissue Blood, dose level Low, time 5 day, vehicle 100 % WATER
[4] = 4.5 mg/kg, 120 h, dose level Low, time 5 day, vehicle 100 % WATER
[5] = 7 mg/kg, 96 h, tissue Blood, dose level M1, time 4 day, […]

For COc1ccc2c(c1)c(CC(=O)O)c(C)n2C(=O)c1ccc(Cl)cc1 [INDOMETHACIN], the HEMATOCRIT [1] was 32.73%, the HEMOGLOBIN [1] was 13.1 G/DL and the “LEUKOCYTE COUNT” value [1] was 8.7 x10E3/uL. For the same compound, the LYMPHOCYTE [1] was 87.33%, the “MEAN CORPUSCULAR HEMOGLOBIN” value [1] was 25.43 pg and the “MEAN CORPUSCULAR HEMOGLOBIN CONCENTRATION” value [1] was 40.03 G/DL. For the same compound, the “MEAN CORPUSCULAR VOLUME” value [1] was 63.57 fL, the MONOCYTE [1] was 2.33% and the NEUTROPHIL [1] was 10.33%. The “NUCLEATED RED BLOOD CELLS” value [1] was 0 /100WBC, the “PLATELET COUNT” value [1] was 1131.67 x10E3/uL and the “ALANINE AMINOTRANSFERASE” value [2] was 52.67 u/L. The ALBUMIN [2] was 3.9 G/DL, the “ALKALINE PHOSPHATASE” value [2] was 367 u/L and the “ASPARTATE AMINOTRANSFERASE” value [2] was 74.33 u/L. For the same compound, the “BLOOD UREA NITROGEN” value [2] was 13.67 mg/dL, the “CARBON DIOXIDE” value [2] was 24.67 mmol/L and the CHLORIDE [2] was 94 MEQ/L. The CHOLESTEROL [2] was 72.33 mg/dL, the “CREATINE PHOSPHOKINASE” value [2] was 273.33 u/L and the CREATININE [2] was 0.1 mg/dL. For the same compound, the GLUCOSE [2] was 165 mg/dL, the “LACTATE DEHYDROGENASE” value [2] was 101.67 u/L and the LIPASE [2] was 9 u/L. For the same compound, the PHOSPHORUS [2] was 11.6 mg/dL, the POTASSIUM [2] was 5.46 MEQ/L and the SODIUM [2] was 137.1 MEQ/L. The “TOTAL BILIRUBIN” value [2] was 0.13 mg/dL, the “TOTAL PROTEIN” value [2] was 5.7 G/DL and the “URIC ACID” value [2] was 0.8 mg/dL. The “ABSOLUTE BASOPHIL” value [3] was 0 CELLS/uL, the “ABSOLUTE EOSINOPHIL” value [3] was 66.67 CELLS/uL and the “ABSOLUTE LYMPHOCYTE” value [3] was 7873.33 CELLS/uL. For the same compound, the “ABSOLUTE MONOCYTE” value [3] was 253.33 CELLS/uL, the “ABSOLUTE SEGMENTED NEUTROPHIL” value [3] was 1273.33 CELLS/uL and the BASOPHIL [3] was 0%. The EOSINOPHIL [3] was 0.67%, the “ERYTHROCYTE COUNT” value [3] was 4.7 x10E6/uL and the HEMATOCRIT [3] was 30.3%. For the same compound, the HEMOGLOBIN [3] was 12.03 G/DL, the “LEUKOCYTE COUNT” value [3] was 9.47 x10E3/uL and the LYMPHOCYTE [3] was 83%. The “MEAN CORPUSCULAR HEMOGLOBIN” value [3] was 25.6 pg, the “MEAN CORPUSCULAR HEMOGLOBIN CONCENTRATION” value [3] was 39.67 G/DL and the “MEAN CORPUSCULAR VOLUME” value [3] was 64.47 fL. The MONOCYTE [3] was 2.67%, the NEUTROPHIL [3] was 13.67% and the “NUCLEATED RED BLOOD CELLS” value [3] was 0 /100WBC. For the same compound, the “PLATELET COUNT” value [3] was 1362.67 x10E3/uL, the “ALANINE AMINOTRANSFERASE” value [4] was 48.67 u/L and the ALBUMIN [4] was 3.83 G/DL. For the same compound, the “ALKALINE PHOSPHATASE” value [4] was 350.67 u/L, the “ASPARTATE AMINOTRANSFERASE” value [4] was 60.67 u/L and the “BLOOD UREA NITROGEN” value [4] was 12 mg/dL. The “CARBON DIOXIDE” value [4] was 32 mmol/L, the CHLORIDE [4] was 105 MEQ/L and the CHOLESTEROL [4] was 66.67 mg/dL. The “CREATINE PHOSPHOKINASE” value [4] was 173.67 u/L, the CREATININE [4] was 0.11 mg/dL and the GLUCOSE [4] was 154 mg/dL. The “LACTATE DEHYDROGENASE” value [4] was 70.33 u/L, the LIPASE [4] was 9.67 u/L and the PHOSPHORUS [4] was 11 mg/dL. The POTASSIUM [4] was 5.99 MEQ/L, the SODIUM [4] was 146.87 MEQ/L and the “TOTAL BILIRUBIN” value [4] was 0.2 mg/dL. The “TOTAL PROTEIN” value [4] was 5.77 G/DL, the “URIC ACID” value [4] was 0.53 mg/dL and the “ABSOLUTE BASOPHIL” value [5] was 0 CELLS/uL. For the same compound, the “ABSOLUTE EOSINOPHIL” value [5] was 0 CELLS/uL, the ABSOLUTE LYMPHOCYTE [5] was 6250 cells/µL and the ABSOLUTE MONOCYTE [5] was 160 cells/µL. For the same compound, the BASOPHIL [5] was 0%, the EOSINOPHIL [5] was 0% and the “ERYTHROCYTE COUNT” value [5] was 3.97 x10E6/uL. The HEMATOCRIT [5] was 25.4%, the HEMOGLOBIN [5] was 8.9 G/DL and the “LEUKOCYTE COUNT” value [5] was 12.7 x10E3/uL. For the same compound, the LYMPHOCYTE [5] was 78.5%, the “MEAN CORPUSCULAR HEMOGLOBIN” value [5] was 22.6 pg and the “MEAN CORPUSCULAR HEMOGLOBIN CONCENTRATION” value [5] was 35.1 G/DL. The “MEAN CORPUSCULAR VOLUME” value [5] was 64.5 fL, the MONOCYTE [5] was 2% and the NEUTROPHIL [5] was 19.5%.
